According to patent publication US20060167094A1, “Satiety agent” (priority 2005, published 2006):
Read-outs that look alike come from different tables or passages of the source.

What was measured:
CCK secretion = details: humans, cited from earlier work
[1] = isomolar concentrations; cited from earlier work
[2] = Antropyloroduodenal (APD) pressures by manometry during intraduodenal infusion; type: in vivo, human
Text: Subjects attended the laboratory at 0830 after fasting from 2200 the previous night from both solids and liquids. They were intubated with a 17-channel manometric catheter (Dentsleeve; Adelaide, South Australia, Australia) that was inserted through an anesthetized nostril and allowed to pass through the stomach and into the duodenum by peristalsis. The manometric catheter, which consisted of 16 sideholes spaced at 1.5-cm intervals, measures pressures in the antrum, pylorus, and duodenum. Six side holes (channels 1-6) were positioned in the antrum, a 4.5-cm sleeve sensor (channel 7), with two channels present on the back of the sleeve (channels 8 and 9), designed to measure pressure waves occurring over the entire pyloric region, were positioned across the pylorus, and seven channels were positioned in the duodenum (channels 10-16). An additional channel, used for intraduodenal infusions, was positioned 11.75 cm distal to the end of the sleeve sensor. The correct positioning of the catheter, so the sleeve sensor straddled the pylorus, was maintained by continuous measurement of the transmucosal potential difference (TMPD) between the most distal antral channel (channel 6; approximately −40 mV) and the most proximal duodenal channel (channel 10; ˜0 mV). For this purpose, an intravenous cannula filled with sterile saline was placed subcutaneously in the left forearm and used as a reference electrode. All manometric channels were perfused with degassed, distilled water except for the two TMPD channels, which were perfused with degassed 0.9% saline at 0.15 ml/min. An intravenous cannula was also placed into a right forearm vein for blood sampling to measure plasma CCK and GLP-1 concentrations.
(§1) Once the catheter was positioned correctly, fasting motility was monitored until the occurrence of phase III of the interdigestive migrating motor complex (MMC). Immediately after the cessation of phase III activity [at time t=−15 min], a baseline venous blood sample was taken, and a visual analog scale questionnaire (VAS) (see Measurements), assessing appetite-related sensations, was administered. At t=0 min (i.e., during phase I of the MMC), the duodenal infusion of 1) C12, 2) C10, or 3) control solution was commenced and continued for 90 min. APD pressures were monitored throughout the infusion period; blood samples were taken, and the VAS administered every 15 min from t=0 min until t=90 min. At t=90 min, the infusion was terminated, and the subject was immediately extubated and offered a cold buffet-style meal, the composition of which is provided in Table 1. The amount of food offered was in excess of what the subject was expected to consume. The subject was given 30 min (i.e., t=90 min to t=120 min) to consume the meal and instructed to eat until comfortably full. After ingestion of the meal, the subject was monitored for a further 30 min, a further VAS was completed, and blood samples were taken at t=120 and 150 min. The intravenous cannula was then removed, and the subject was allowed to leave the laboratory.
APD pressures. Manometric pressures were digitized, recorded on a computer-based system (PowerMac 7100/75, Apple Computers; Cupertino, Calif.) running commercially available software (HAD, Associate Prof. G S Hebbard, Melbourne, Australia) written in LabView 3.1.1 (National Instruments), and stored for subsequent analysis. APD pressures were analysed for 1) number and amplitude of isolated pyloric pressure waves (IPPWs) and pressure waves (PWs) in the antrum and duodenum and 2) number and length of PW sequences (PWSs) in the duodenum using custom-written software (Gastrointestinal Motility Unit; Utrecht, The Netherlands) modified to our requirements. […]

[3] = Appetite perceptions (VAS scores) during and after 90 min intraduodenal infusion; type: in vivo, human
Protocol: (§2) Each subject was studied on three occasions, separated by 3-10 days, to evaluate, in a double-blind, randomized fashion, the effects of intraduodenal infusions of 1) C12, 2) C10, or 3) control solution for 90 min on appetite perceptions, energy intake, APD pressures, and plasma CCK and GLP-1 concentrations.
as §1
Appetite sensations and energy intake. Subjective sensations of appetite, including hunger, fullness, desire to eat, prospective consumption (“how much food do you think you could eat if you were given a meal now?”), were assessed using validated VASs (Sensations of nausea and bloating were also assessed. Each VAS evaluated a sensation on a 100-mm horizontal line, where 0 represented “sensation is not felt at all” and 100 represented “sensation is felt the greatest.” Subjects were asked to place a vertical stroke on the 100-mm line in relation to what they were feeling at that particular point in time.
Baseline (“0”) values were calculated as the mean of values obtained at t=−15 and 0 min for VAS scores and plasma hormone concentrations and between t=−15 to 0 min for basal pyloric pressures, number, and amplitude of IPPWs, antral and duodenal PWs, and total number of duodenal PWSs. Basal pyloric pressures and the number and amplitude of IPPWs were expressed as means over 15-min segments during the 90-min infusion period. Numbers and amplitudes of antral and duodenal PWs were expressed as total number and mean values, respectively, for the 90-min infusion period. Duodenal PWSs were expressed as the total number of waves travelling over two, three, four, five, six, and seven channels during the 90-min infusion period. All data, except for plasma CCK and GLP-1 concentrations, were expressed as changes from baseline.
VAS scores, basal pyloric pressures, number and amplitude of IPPWs, and plasma hormone concentrations were analyzed by repeated-measures mixed model analysis of covariance (ANCOVA), with baseline as the covariate and time (0-90 min, at 15-min intervals) and treatment as within-subject factors. One-way ANOVA was used to assess the effect of treatment on energy intake, time taken to complete eating, total numbers and mean amplitudes of antral and duodenal PWs, and total number of duodenal PWSs. A logarithmic transformation was applied to nausea scores, antral amplitudes, and duodenal PWSs travelling 7.5 and 9 cm to better address the underlying assumptions of the models used (as these variables lacked normal distribution). If significance or near significance ([…]) was found, post hoc comparisons of least-squares means using Student's t-tests were performed. […]

plasma GLP-1 = experiment: Plasma GLP-1 concentrations by radioimmunoassay; type: in vivo, human
Protocol: as §1
(§3) Venous blood samples (10 ml) were collected in ice-chilled EDTA-treated tubes containing 400 kIU aprotinin (Trasylol, Bayer Australia) per millilitre of blood. Plasma was separated by centrifugation (3,200 rpm, 15 min, 4° C.) within 30 min of collection and stored at −70° C. until assayed.
Plasma GLP-1 concentrations (in pmol/l) were measured by radioimmunoassay using an adaptation of a previously published method (4) Antibody, supplied by Prof. […] It is likely that this antibody also reacts with the degraded form of GLP-1(9-36) amide. Intra-assay CV was 17% and interassay CV was 18%, with a sensitivity of 1.5 pmol/l.

[4] = Energy intake from the buffet meal after intraduodenal infusion; type: in vivo, human
Protocol: as §2, §1
Energy intake from the buffet meal [energy consumption (in kJ) and macronutrient distribution (in % and g energy)] was analyzed using commercially available software (Food works 3.0, Xyris Software; Highgate Hill, Queensland, Australia). The time taken to finish the meal (in min) was also evaluated.

plasma CCK = experiment: Plasma CCK concentrations by radioimmunoassay; type: in vivo, human
Protocol: as §1, §3
Plasma CCK concentrations (in pmol/l) were determined after ethanol extraction using a previously described radioimmunoassay (3). A commercially available antibody (C258, Lot 105H4852, Sigma Chemical) raised in rabbits against the synthetic sulfated CCK-8 was employed. […] The intra-assay coefficient of variation (CV) was 9% and the interassay CV was 27%, with a sensitivity of 2.5 pmol/l. The sensitivity of the assay relates to its reliable detection limit.

[5] = 90 min infusion, compared with control
[6] = during 90 min intraduodenal infusion, 0.375 kcal/min, compared with control
[7] = buffet meal, compared with control

In the case of `CCCCCCCCCCC(=O)O` [C11], the “stimulation of CCK secretion” value (CCK secretion; gastric infusion) is given as “neither C11 nor C10”.
For `CCCCCCCCCCCCCCCCCC(=O)O` [C18], the “stimulation of CCK secretion” value (CCK secretion; duodenal infusion) is listed as “reported to stimulate CCK secretion”.
For `CCCCCCCCCC(=O)O` [C10, decanoic (C10:0) acid, reference compound], the “stimulation of CCK secretion” value (CCK secretion; gastric infusion) is given as “neither C11 nor C10”, the “cytotoxicity relative to C12” value [1] is given as “similar” and the “basal pyloric pressure (tone)” value [2, 5] is given as “significant difference between C10 and control”. The “number of antral PWs” value [2, 5] was “no difference between C10 and control”, the “number of duodenal PWs” value [2, 5] was “increased the number of duodenal PWs compared with control” and the “number of IPPWs compared with control” value ([2]; C12: 0-15, 15-30 and 30-45 min, C10: 0-15 min) was “increased the number of IPPWs compared with control between 0 and 15 min”. For the same molecule, the “number of duodenal PWSs travelling over six channels (7.5 to <9 cm)” value ([2]; compared with control) was “decreased the number of waves that travelled over six channels compared with control”, the “number of duodenal PWSs travelling over three channels (3 to <4.5 cm)” value ([2]; compared with control) was “no difference between C12 or C10 and control” and the “number of duodenal PWSs travelling over two channels (1.5 to <3 cm)” value ([2]; compared with control) was “increased the number of waves compared with control”. For the same molecule, the “number of waves that travelled over nine channels” value ([2]; compared with control) was “no difference between C10 and control”, the “amplitude of IPPWs compared with control” value ([2]; throughout the infusion period) was “no significant differences between C10 and control” and the “fullness (VAS) after meal ingestion” value ([3]; at 120 and 150 min, after the buffet meal) was “no difference between C10 and control”. For the same molecule, the “scores for bloating (VAS)” value ([3]; during 90 min intraduodenal infusion, 0.375 kcal/min) was “increased scores for bloating compared with control”, the “nausea scores (VAS)” value [3, 6] was “no difference in nausea scores between C10 and control” and the “scores for hunger (VAS)” value [3, 6] was “no differences were found between C10 and control”. For the same molecule, the “scores for prospective consumption (VAS)” value [3, 6] was “no differences were found between C10 and control”, the “scores for desire to eat (VAS)” value ([3]; during 90 min intraduodenal infusion, 0.375 kcal/min, healthy males, compared with control) was “no differences were found between C10 and control” and the “plasma GLP-1 concentrations compared with control” value (plasma GLP-1; during infusion, C12 effect from 30 to 90 min) was “no difference between C10 and control”. For the same molecule, the “plasma GLP-1 concentrations after meal ingestion” value (plasma GLP-1; t=120 and 150 min, compared with control) was “no difference between C10 and control”, the “energy intake at buffet meal” value ([4]; after 90 min intraduodenal infusion 0.375 kcal/min, compared with control) was “no difference between C10 and control infusion” and the “amount of energy (in g) ingested from carbohydrate” value [4, 7] was “no difference between C10 and control”. For the same molecule, the “amount of energy (in g) ingested from fat” value [4, 7] was “no difference between C10 and control”, the “amount of energy (in g) ingested from protein” value [4, 7] was “no difference between C10 and control” and the “time at which eating from the buffet meal was completed” value ([4]; mean±SE, not statistically significant) was 20.6 ± 2.6 min. For the same molecule, the “plasma CCK concentrations” value (plasma CCK; during 90 min infusion, compared with control) was “increased plasma CCK concentrations” and the “time of peak plasma CCK” value (plasma CCK; from start of infusion) was 15 min.
